Columns and labels:
Assay type in all cases: in vivo
[1] = tested on: ducksalad (Heteranthera limosa); experiment: Test C flooded paddy test plant response; conditions: Flood, 250 g ai/ha; scale of 0 to 100 where 0 is no effect and 100 is complete control; 13 to 15 days
Summary of the method: (§1)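 Readout is a visual 0–100 score (100 = complete control) versus controls at 13–15 days. Plants at 2-leaf stage, flooded to 3 cm, treated through paddy water.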

[2] = tested on: barnyardgrass (Echinochloa crus-galli); experiment: Test C flooded paddy test plant response; conditions: Flood, 250 g ai/ha; scale of 0 to 100 where 0 is no effect and 100 is complete control; 13 to 15 days
Summary of the method: as §1

rice (Oryza sativa) = experiment: Test C flooded paddy test plant response; conditions: Flood, 250 g ai/ha; scale of 0 to 100 where 0 is no effect and 100 is complete control; 13 to 15 days
Summary of the method: as §1

[3] = tested on: small-flower umbrella sedge (Cyperus difformis); experiment: Test C flooded paddy test plant response; conditions: Flood, 250 g ai/ha; scale of 0 to 100 where 0 is no effect and 100 is complete control; 13 to 15 days
Summary of the method: as §1

[4] = tested on: morningglory (Ipomoea spp.); experiment: Test B pre-/postemergence plant response
Summary of the method: (§2)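 Scoring used a 0–100 scale (100 = complete control) by visual comparison with untreated plants after approximately 10 days in the greenhouse. Compounds, in surfactant-containing non-phytotoxic solvent, were sprayed onto soil at planting or onto 2–10 cm seedlings.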

corn (Zea mays) = experiment: Test B pre-/postemergence plant response
Summary of the method: as §2

[5] = tested on: barnyardgrass (Echinochloa crus-galli); experiment: Test B pre-/postemergence plant response
Summary of the method: as §2

[6] = tested on: velvetleaf (Abutilon theophrasti); experiment: Test B pre-/postemergence plant response
Summary of the method: as §2

[7] = tested on: large (Lg) crabgrass (Digitaria sanguinalis); experiment: Test B pre-/postemergence plant response
Summary of the method: as §2

[8] = tested on: pigweed (Amaranthus retroflexus); experiment: Test B pre-/postemergence plant response
Summary of the method: as §2

[9] = tested on: giant foxtail (Setaria faberii); experiment: Test B pre-/postemergence plant response
Summary of the method: as §2

[10] = tested on: wheat (Triticum aestivum); experiment: Test B pre-/postemergence plant response
Summary of the method: as §2

[11] = 125 g ai/ha, postemergence, 0 to 100 scale, 0 no effect, 100 complete control
[12] = Postemergence, 500 g ai/ha, 0 to 100 scale (0 no effect, 100 complete control)
[13] = Preemergence, 125 g ai/ha, 0 to 100 scale where 0 is no effect and 100 is complete control
[14] = Preemergence, 500 g ai/ha, 0 to 100 scale (0 no effect, 100 complete control)

Row | Compound | Ducksalad plant response rating [1] | Barnyardgrass plant response rating [2] | Rice plant response rating (rice (Oryza sativa)) | Sedge, Umbrella plant response rating [3] | Plant response rating, Corn (corn (Zea mays); [13]) | Plant response rating, Corn (corn (Zea mays); [14]) | Plant response rating, Barnyardgrass [5, 11] | Plant response rating, Barnyardgrass [5, 12] | Plant response rating, Barnyardgrass [5, 13] | Plant response rating, Barnyardgrass [5, 14] | Plant response rating, Velvetleaf [6, 11] | Plant response rating, Velvetleaf [6, 12] | Plant response rating, Velvetleaf [6, 13] | Plant response rating, Velvetleaf [6, 14] | Plant response rating, Crabgrass, Large [7, 11] | Plant response rating, Crabgrass, Large [7, 12] | Plant response rating, Crabgrass, Large [7, 13] | Plant response rating, Crabgrass, Large [7, 14] | Plant response rating, Pigweed [8, 11] | Plant response rating, Pigweed [8, 12] | also measured
1 | Clc1cnc(Oc2ccccc2-c2cccnc2)nc1 [Compound 4] | 0 | 0 | 0 | 0 | 0 | 0 | 0 | 10 | 0 | 0 | 30 | 60 | 0 | 30 | 20 | 50 | 10 | 80 | 30 | 100 | Plant response rating, Morningglory [4, 11]: 0; Plant response rating, Morningglory [4, 12]: 30; Plant response rating, Morningglory [4, 13]: 0; Plant response rating, Morningglory [4, 14]: 0; Plant response rating, Pigweed [8, 13]: 30; Plant response rating, Pigweed [8, 14]: 70; Plant response rating, Foxtail, Giant [9, 11]: 0; Plant response rating, Foxtail, Giant [9, 12]: 30; Plant response rating, Foxtail, Giant [9, 13]: 10; Plant response rating, Foxtail, Giant [9, 14]: 50; Plant response rating, Wheat [10, 11]: 0; Plant response rating, Wheat [10, 12]: 0; Plant response rating, Wheat [10, 13]: 0; Plant response rating, Wheat [10, 14]: 0
2 | Clc1cnc(Oc2ccccc2-c2cccc(Cl)n2)nc1 [Compound 16] | 0 | 0 | 0 | 0 | 0 | 0 | 0 | 0 | 0 | 0 | 0 | 20 | 0 | 20 | 0 | 0 | 0 | 10 | 0 | 30 | Plant response rating, Corn (corn (Zea mays); [11]): 0; Plant response rating, Corn (corn (Zea mays); [12]): 0; Plant response rating, Pigweed [8, 13]: 0; Plant response rating, Pigweed [8, 14]: 20; Plant response rating, Foxtail, Giant [9, 11]: 0; Plant response rating, Foxtail, Giant [9, 12]: 0; Plant response rating, Foxtail, Giant [9, 13]: 0; Plant response rating, Foxtail, Giant [9, 14]: 10; Plant response rating, Wheat [10, 11]: 0; Plant response rating, Wheat [10, 12]: 0; Plant response rating, Wheat [10, 13]: 0; Plant response rating, Wheat [10, 14]: 0
3 | Clc1cccc(-c2ccccc2Oc2ncc(Br)cn2)n1 [Compound 17] | 0 | 0 | 0 | 0 | 0 | 0 | 0 | 0 | 0 | 0 | 0 | 20 | 0 | 10 | 0 | 0 | 0 | 10 | 0 | 10 | Plant response rating, Corn (corn (Zea mays); [11]): 0; Plant response rating, Corn (corn (Zea mays); [12]): 0; Plant response rating, Pigweed [8, 13]: 0; Plant response rating, Pigweed [8, 14]: 0; Plant response rating, Foxtail, Giant [9, 11]: 0; Plant response rating, Foxtail, Giant [9, 12]: 0; Plant response rating, Foxtail, Giant [9, 13]: 0; Plant response rating, Foxtail, Giant [9, 14]: 0; Plant response rating, Wheat [10, 11]: 0; Plant response rating, Wheat [10, 12]: 0; Plant response rating, Wheat [10, 13]: 0; Plant response rating, Wheat [10, 14]: 0

Source: patent publication US10131652B2, “Pyrimidinyloxy benzene derivatives as herbicides” (E. I. DU PONT DE NEMOURS AND COMPANY, priority 2014, dated 2018)
